Measurements published in ChEMBL document CHEMBL1201862, “PubChem BioAssay data set” (2004).
Active and inactive are the calls of the source.

Assays:
[1] = microbe, parasite or virus in culture; format: functional; conditions: Mycobacterium tuberculosis
[2] = biological target: Eukaryotic translation initiation factor 4E (Mus musculus, UniProt P63073); assay: eIF4E–eIF4G protein interaction inhibitors, dose response, biochemical, TR-FRET (AID 855); format: functional;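 also: potency for disrupting eIF4E binding to eIF4GI seen as loss of FRET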
[3] = system: Streptococcus sp. 'group A'; assay: growth inhibition of control SK(-) GAS strain, dose response, counter-screen for streptokinase expression inhibitor project, luminescence, kanamycin, BacTiterGlo, confirmation (AID 1900); format: functional, organism-based; conditions: read-out: EC50
[4] = system: Streptococcus; assay: Group A Streptococcus viability loss, dose response, counter-screen for streptokinase expression inhibitor project, luminescence, BacTiterGlo (AID 1915); format: functional, organism-based;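 also: potency for reduction of bacterial viability or growth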
[5] = cells; format: functional
[6] = biological target: Induced myeloid leukemia cell differentiation protein Mcl-1 (Homo sapiens, UniProt Q07820); format: functional
[7] = biological target: T1, Carboxy-terminal domain RNA polymerase II polypeptide A small phosphatase 1 (Homo sapiens, UniProt Q9GZU7); assay: inhibitors of CTDSP1, concentration-response testing, biochemical assay, absorbance-based, actives from ultra-high-throughput screening (AID 540297); format: functional
T1 sequence (Q9GZU7 whole entry): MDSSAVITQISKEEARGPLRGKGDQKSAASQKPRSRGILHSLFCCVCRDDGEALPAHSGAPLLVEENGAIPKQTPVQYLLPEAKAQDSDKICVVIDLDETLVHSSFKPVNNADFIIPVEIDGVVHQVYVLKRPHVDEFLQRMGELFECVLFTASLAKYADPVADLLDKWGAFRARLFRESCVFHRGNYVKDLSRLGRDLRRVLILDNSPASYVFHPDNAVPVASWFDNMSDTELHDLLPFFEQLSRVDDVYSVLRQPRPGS

[8] = Luminescence Cell-Based Dose Response HTS to Identify Inhibitors of 5'UTR Stem-Loop Driven Prion Protein mRNA Translation in H4 Neuroglioblastoma Cells. [Related pubchem assays: 1827 (Project Summary), 1813 (Primary HTS)]; format: functional
[9] = system: INS1; assay: beta cell apoptosis inhibitors, cytokine rescue, dose response, luminescence, retest (AID 449756); format: functional, cell-based; conditions: Rattus norvegicus;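 also: cell death triggered by IL-1 beta plus TNF-alpha plus IFN-gamma mixture; protective hits raise ATP signal compared with cytokine alone wells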
[10] = inhibitors of SNCA 5'UTR-driven reporter translation, confirmation, H4 neuroglioma cells, luminescence (AID 1988); format: functional, cell-based
[11] = biological target: T2, Corticotropin-releasing factor receptor 2/Corticotropin-releasing factor-binding protein (Homo sapiens, UniProt P24387+Q13324); assay: activators of CRF receptor 2 with binding protein – uHTS hits, confirmation (AID 602473); format: functional; conditions: read-out: EC50_Mean
T2 sequence (Q13324 whole entry): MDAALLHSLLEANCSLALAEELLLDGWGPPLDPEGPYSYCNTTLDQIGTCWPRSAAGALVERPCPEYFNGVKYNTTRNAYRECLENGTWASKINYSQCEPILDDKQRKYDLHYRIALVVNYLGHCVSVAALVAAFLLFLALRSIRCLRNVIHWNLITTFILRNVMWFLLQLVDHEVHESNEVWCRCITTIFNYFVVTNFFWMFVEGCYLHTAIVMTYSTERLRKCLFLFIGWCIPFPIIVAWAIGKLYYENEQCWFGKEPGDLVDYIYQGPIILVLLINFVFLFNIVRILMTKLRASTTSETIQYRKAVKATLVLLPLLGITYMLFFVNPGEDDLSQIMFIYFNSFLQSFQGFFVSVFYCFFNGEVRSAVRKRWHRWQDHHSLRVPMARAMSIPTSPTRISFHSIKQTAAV
T2 sequence (P24387 whole entry): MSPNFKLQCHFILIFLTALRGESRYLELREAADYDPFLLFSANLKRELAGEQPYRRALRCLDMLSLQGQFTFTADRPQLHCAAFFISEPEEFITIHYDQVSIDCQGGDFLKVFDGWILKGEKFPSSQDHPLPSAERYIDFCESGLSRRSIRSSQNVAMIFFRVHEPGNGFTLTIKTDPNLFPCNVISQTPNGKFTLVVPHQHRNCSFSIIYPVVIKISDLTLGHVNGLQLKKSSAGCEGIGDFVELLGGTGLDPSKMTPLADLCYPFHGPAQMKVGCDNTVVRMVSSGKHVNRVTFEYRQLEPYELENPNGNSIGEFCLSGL

[12] = inhibitors of firefly luciferase expression or activity, dose response, H4 neuroglioma cells, luminescence (AID 1990); format: functional, cell-based
[13] = growth suppression of beta-catenin-knockout colon cells, dose response, cell-based, HCT116, human colon tumor (AID 1045); format: functional;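 also: HCT116 colon tumor cells with beta catenin knocked out; cells exposed to compound for 60 hours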
[14] = growth suppression of PTEN-null colon cells, dose response, cell-based, HCT116 PTEN knockout (AID 1047); format: functional;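 also: HCT116 colon tumor cells with PTEN knocked out; cells exposed to compound for 60 hours before readout; potency for loss of cell viability measured by luminescence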
[15] = biological target: T3, Streptokinase A (Streptococcus pyogenes serotype M1, UniProt P10520); assay: S. pyogenes streptokinase expression inhibitors, potency, dose response, plasminogen activation absorbance, OD405 (AID 1914); format: functional, Streptococcus pyogenes M1 GAS;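 also: secreted streptokinase activity via plasminogen activation per viability signal from cell pellet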
T3 sequence (P10520 whole entry): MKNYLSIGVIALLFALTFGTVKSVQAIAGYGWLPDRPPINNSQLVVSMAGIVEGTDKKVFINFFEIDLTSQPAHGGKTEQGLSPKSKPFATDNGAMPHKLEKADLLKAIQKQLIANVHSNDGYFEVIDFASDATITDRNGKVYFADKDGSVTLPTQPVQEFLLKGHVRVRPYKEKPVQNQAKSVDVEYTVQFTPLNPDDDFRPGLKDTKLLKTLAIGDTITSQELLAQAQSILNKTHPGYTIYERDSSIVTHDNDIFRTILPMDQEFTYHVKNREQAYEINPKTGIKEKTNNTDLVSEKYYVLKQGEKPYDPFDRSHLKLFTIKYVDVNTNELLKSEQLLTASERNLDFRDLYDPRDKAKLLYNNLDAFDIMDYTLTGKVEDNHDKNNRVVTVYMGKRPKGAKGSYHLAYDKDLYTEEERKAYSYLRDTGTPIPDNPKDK

[16] = Shn3 3'UTR reporter inhibitors, dose response, cell-based, Clone20 osteoblasts, firefly luciferase, cherry-picked (AID 624132); format: functional;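 also: firefly luciferase luminescence from reporter carrying the Shn3 3'UTR in osteoblasts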
[17] = cells; format: functional, cell-based
[18] = cells; format: functional, cell-based; remark: listed apart in the source
[19] = control 3'UTR Renilla luciferase suppression, dose response, counter-screen for Shn3 inhibitor project, cell-based, Clone20-Shn3RL, cherry-picked (AID 624133); format: functional
[20] = inhibitors of clade B AD8 Env fusion, dose response, cell-based, cherry-pick (AID 652062); format: functional;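 also: luciferase signal from cell-cell fusion driven by HIV-1 clade B AD8 Env; potency is for inhibitors of fusion seen as a drop in luminescence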
[21] = inhibitors of HIV Env-driven cell fusion, dose response, cherry-pick (AID 652057); format: functional, cell-based
[22] = ZM109 Env clade C HIV-1 fusion inhibitors, dose response, HeLa effector, CEM target cells, luciferase, cherry-pick (AID 652058); format: functional, cell-based
[23] = P. falciparum Dd2 growth inhibitors, dose response, SYBR Green, cherry-picked samples (AID 1159567); format: functional, cell-based
[24] = biological target: Paired box protein Pax-8 (Homo sapiens, UniProt Q06710); assay: inhibitors of PAX8-driven TPO luciferase reporter, dose response, RMG-I cells, cherry-pick (AID 687027); format: functional, cell-based;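 also: luciferase reporter driven by Pax8 target thyroperoxidase promoter measured by SteadyGlo luminescence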
[25] = inhibitors of intracellular T. cruzi replication, confirmation, NIH3T3 host cells, beta-gal luminescence (AID 2044); format: functional, cell-based;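 also: intracellular parasites grown in NIH/3T3 mouse fibroblasts as host cells; luminescent beta-galactosidase reporter signal from transgenic T. cruzi replicating inside host cells; inhibitors lower the luminescence signal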
[26] = cytotoxicity toward NIH3T3 fibroblasts, dose response, counter-screen, cell-based, ATP luminescence, mouse fibroblasts (AID 2010); format: functional;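 also: cells exposed to compound for about 90 hours before reading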
[27] = Luminescence Cell-Based Dose Retest to Confirm Inhibitors of Cancer Stem Cells. [Related pubchem assays (depositor defined):AID2717, AID2721]; format: functional, Homo sapiens; conditions: Homo sapiens

Chain of Eukaryotic translation initiation factor 4E (P63073 whole entry): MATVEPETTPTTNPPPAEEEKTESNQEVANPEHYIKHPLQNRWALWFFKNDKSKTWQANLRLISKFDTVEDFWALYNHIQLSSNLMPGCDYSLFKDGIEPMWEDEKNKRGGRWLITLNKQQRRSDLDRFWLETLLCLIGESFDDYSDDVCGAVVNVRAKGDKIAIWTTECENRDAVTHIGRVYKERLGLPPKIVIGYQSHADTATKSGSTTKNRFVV
Chain of Induced myeloid leukemia cell differentiation protein Mcl-1 (Q07820 whole entry, the tested form may be a part): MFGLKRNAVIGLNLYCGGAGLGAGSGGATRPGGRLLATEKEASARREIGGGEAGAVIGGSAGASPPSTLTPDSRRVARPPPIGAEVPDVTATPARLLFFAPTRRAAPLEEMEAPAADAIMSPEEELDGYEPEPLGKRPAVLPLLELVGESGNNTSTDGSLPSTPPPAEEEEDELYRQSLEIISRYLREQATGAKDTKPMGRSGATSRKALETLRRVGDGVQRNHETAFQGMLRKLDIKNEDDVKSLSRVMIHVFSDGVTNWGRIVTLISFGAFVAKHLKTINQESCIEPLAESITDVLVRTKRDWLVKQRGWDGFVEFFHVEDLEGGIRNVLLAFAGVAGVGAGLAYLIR
Chain of Paired box protein Pax-8 (Q06710 whole entry): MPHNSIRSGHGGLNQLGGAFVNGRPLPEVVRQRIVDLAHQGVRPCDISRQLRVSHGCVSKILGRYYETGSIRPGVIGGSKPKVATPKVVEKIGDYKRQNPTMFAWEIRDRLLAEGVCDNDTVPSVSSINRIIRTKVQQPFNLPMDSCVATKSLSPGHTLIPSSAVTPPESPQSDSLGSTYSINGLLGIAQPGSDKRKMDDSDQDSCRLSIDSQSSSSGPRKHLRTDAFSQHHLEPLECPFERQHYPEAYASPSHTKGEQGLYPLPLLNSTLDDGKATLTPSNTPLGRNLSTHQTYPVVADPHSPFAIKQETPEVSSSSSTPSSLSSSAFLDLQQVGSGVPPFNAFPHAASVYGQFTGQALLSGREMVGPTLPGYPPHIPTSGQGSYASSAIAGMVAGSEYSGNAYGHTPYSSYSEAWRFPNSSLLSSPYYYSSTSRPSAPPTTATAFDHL

NNc1nc2ccc(Cl)cc2s1
CC50 [1]: > 40 µM (active)

CCOC(=O)c1c(-c2cccc([N+](=O)[O-])c2)csc1NC(=O)CCCOc1ccccc1
IC50 [2]: > 64 µM (inactive)

O=C(Nc1nnc(C2=COCCO2)o1)c1ccc(Cc2ccccc2)cc1
EC50 [3]: 2.54 µM (active)
EC50 [4]: 3.96 µM (active)
IC50 [5]: 10.2 µM (active)
CC50 [1]: > 40 µM (active)

CCCOC(=O)c1ccc(OCC(O)CN2CCN(C(=O)c3ccccc3)CC2)cc1 (stereo unspecified)
IC50 [2]: > 64 µM (inactive)

COC(=O)[C@@]1(Cc2ccccc2)[C@H]2c3cc(C(=O)N4CCCC4)n(CCSCCO)c3C[C@H]2CN1C(=O)c1ccccc1
IC50 [6]: 1.87 µM (not active)

CCOC(=O)c1[nH]c(CN2CCN(c3ccc(OC)cc3)CC2)c(C(=O)OCC)c1C
CC50 [1]: > 40 µM (active)

COc1cc(NC(=O)c2ccccc2)c(OC)cc1NC(=O)Cc1cccs1
IC50 [7]: 3.86 µM (active)
IC50 [2]: 50 µM (inactive)

CCCCCCc1cc2cc(C(=O)Nc3cccc(OC)c3)c(=O)oc2cc1O
EC50 [8]: 65.8 µM (active)
AC50 [9]: 4.06 µM (active)
EC50 [10]: 16.6 µM (active)
EC50 [11]: > 53 µM (inactive)
EC50 [12]: > 120 µM (not active)

COc1ccc(C(=O)Nc2ccccc2C(N)=O)cc1
IC50 [2]: > 64 µM (inactive)

CC(C)CN1C(=S)SC(C)(C)C1n1oc(=O)n(-c2ccc(Cl)cc2)c1=O (stereo unspecified)
EC50 [3]: 4.36 µM (active)
EC50 [13]: 20.7 µM (active)
EC50 [14]: 21.9 µM (active)
EC50 [4]: 18.8 µM (active)
EC50 [15]: 5.59 µM (active)

O=C(c1ccc([N+](=O)[O-])cc1)c1cc2ccc(O)cc2oc1=O
IC50 [7]: 10.8 µM (active)

COC(=O)CNC(=O)COC(=O)C(Cc1ccccc1)NC(=O)c1ccco1 (stereo unspecified)
EC50 [11]: > 53 µM (inactive)

COc1ccccc1NC(=S)NC(=O)Cc1ccc(Cl)cc1
EC50 [11]: 9.41 µM (active)

O=C(NC(=S)N1CCc2ccccc21)c1ccc(Br)o1
CC50 [1]: 39.7 µM (active)

Cc1ccc2nc(N3C(=O)C(O)=C(C(=O)c4cc5ccccc5o4)C3c3cccs3)sc2c1 (stereo unspecified)
EC50 [3]: 1.39 µM (active)
IC50 [6]: 2.37 µM (active)
EC50 [4]: 7.6 µM (active)

C[C@@H](O)C1NC(=O)[C@H](CCCCN)NC(=O)c2cc([N+](=O)[O-])cc(I)c2NCCC[C@@H](C(N)=O)NC1=O (stereo partly specified)
IC50 [2]: > 64 µM (inactive)

CCN1C(NCCc2ccc(Br)cc2)=N[C@@H](c2ccccc2)[C@H](C(=O)OC)[C@H]1C
CC50 [1]: 34.3 µM (active)

O=c1c(/C=C(\O)c2ccc(F)cc2)nc2ccccc2n1-c1ccccc1
EC50 [11]: 7.18 µM (active)

O=C(CCS(=O)(=O)c1cccc2nsnc12)NCc1ccccc1Cl
IC50 [2]: > 64 µM (inactive)

CC(C)c1cc(C(=O)Nc2cccc(Cl)c2)no1
IC50 [2]: > 64 µM (inactive)

C=CCNc1oc(-c2ccc(-c3ccccc3)cc2)nc1C#N
CC50 [1]: > 40 µM (active)

COc1ccc2c(c1OC)C(=O)N1c3ccccc3C(=O)N(c3ccccc3F)C21 (stereo unspecified)
EC50 [8]: 13.1 µM (active)
EC50 [10]: 12 µM (active)
EC50 [12]: > 120 µM (not active)
AC50 [16]: 11.6 µM (active)

COc1ccc2[nH]c(=O)c(CN(CCN3CCCC3)C(=O)Nc3ccccc3Cl)cc2c1
IC50 [2]: > 64 µM (inactive)

COc1ccc(CC(=O)Nc2ccc(-c3noc(-c4ccc(Cl)cc4)n3)cc2)cc1
EC50 [13]: 1.69 µM (active)
EC50 [14]: 2.11 µM (active)

O=C(NCc1ccco1)c1cc(-c2ccccc2)on1
EC50 [17]: 62.4 µM (active)
EC50 [18]: > 350 µM (not active)

CCCCC(=O)Nc1ccc2oc(-c3ccncc3)nc2c1
IC50 [2]: > 64 µM (inactive)

O=C(CCS(=O)(=O)c1ccc(Br)cc1)NCc1ccc(F)cc1
IC50 [7]: 7.9 µM (active)

CC(=O)O[C@H]1CC[C@@]2(C)C(=CC[C@H]3[C@@H]4CC[C@H](C(C)=O)[C@@]4(C)CC[C@@H]32)C1
AC50 [19]: 29 µM (active)
AC50 [16]: 28.5 µM (active)

COc1ccc2o/c(=N\c3ccccc3)c(-c3nc4ccccc4[nH]3)cc2c1
EC50 [13]: 2.59 µM (active)
EC50 [14]: 2.22 µM (active)

CCCNC(=O)C[C@H]1CC[C@@H]2[C@@H](COc3ccc(NC(=O)c4cccc(C(F)(F)F)c4)cc3C(=O)N2C)O1
AC50 [20]: 12.7 µM (active)
AC50 [21]: 36 µM (active)
AC50 [22]: 5.51 µM (active)

C[C@H](CO)N1C[C@H](C)[C@@H](CN(C)Cc2ccc(Cl)c(Cl)c2)Oc2ccc(N(C)C)cc2C1=O
AC50 [20]: 8.23 µM (active)
AC50 [21]: 10.5 µM (active)
AC50 [22]: 5.9 µM (active)

C[C@H]1CN([C@@H](C)CO)S(=O)(=O)c2ccc(C#Cc3ccccc3F)cc2O[C@H]1CN(C)C(=O)c1ccc2c(c1)OCO2
AC50 [23]: 5.07 µM (active)
AC50 [24]: 5.76 µM (active)

O=C1c2ccccc2C(=O)N1/N=C/c1ccc(O)c(O)c1O
IC50 [6]: 2.28 µM (active)

COc1cc(/C=N/NC2=NC(=O)C(CC(=O)O)S2)ccc1OCc1ccc(Cl)cc1 (stereo unspecified)
IC50 [7]: 12.4 µM (active)

CCOC(=O)/C(=N/Nc1ccccc1)c1csc(Nc2ccccc2)n1
EC50 [25]: 1.39 µM (active)
EC50 [3]: 3.92 µM (active)
EC50 [26]: > 30 µM (not active)
EC50 [4]: 4.88 µM (active)
EC50 [15]: > 150 µM (not active)
CC50 [1]: > 40 µM (active)
AC50 [27]: 1.88 µM (active)

CSc1ccc(/C=N/NC(=O)c2ccc(C)c(C)c2)cc1
IC50 [7]: 9.17 µM (active)

C[C@H](CO)N1C[C@H](C)[C@H](CN(C)CC2CC2)Oc2ccc(NS(=O)(=O)c3ccc(Cl)cc3)cc2CC1=O
AC50 [23]: 5.58 µM (active)

N#C[C@@H]1[C@@H](c2ccc(C#CC3CCCCC3)cc2)[C@H](CO)N1C(=O)Nc1ccc(F)cc1
AC50 [23]: 5.12 µM (active)

COCC(=O)Nc1ccc2c(c1)C(=O)N(C)C[C@@H](OC)[C@H](C)CN(CC1CCCCC1)[C@@H](C)CO2
AC50 [23]: 6.65 µM (active)
